SMILES strings stand for the structures.

This note sets out measurements from patent US8129366B2, “VLA-4 inhibitory drug” (Daiichi Sankyo Company, Limited, priority 2005, dated 2012).

This experiment concerns the target T1, hα4 and β1 integrins (Homo sapiens, UniProt P05556+P13612).
T1 construct: expressed in transfected cells; host or cells: CHO cells
The experiment is described as follows: In vitro inhibition of binding between CHO cells expressing hα4 and β1 integrins and Eu3+-hVCAM-1 D1D7-IgG. As to conditions: for Ki: CHO cells expressing hα4 and β1 integrins, Eu3+-hVCAM-1 D1D7-IgG ligand, without HSA; for IC50: in the presence of 3% human serum albumin (HSA final concentration 3%). Here is the method: CHO cells which forcibly expressed hα4 and β1 integrins through transfection thereof, were inoculated into a Costar 3599 plate (3×10^4 cells/100 μl/well), and cultured for two days. The cells in the wells were washed two times with buffer A*, and then Eu^3+-hVCAM-1 D1D7-IgG diluted with assay buffer** to 2 nM was added in an amount of 50 μl/well. The substance under test diluted with 26 DMSO-assay buffer (in the co-presence or absence of 6% human serum albumin) was added in an amount of 50 μl/well (adding separately diluted solution to the wells for performing Scatchard analysis), the contents were stirred for 5 minutes with a plate mixer, and then the plate was left to stand still for one hour at room temperature. The binding inhibitory activity in the presence of human serum albumin (HSA) was examined by diluting the specimen with 26 DMSO-assay buffer containing 6% HSA (SIGMA Corp., c/n A-1653), and adding the resultant (HSA final concentration 3%). After 30 to 60 minutes of the addition of specimen, the plate contents were washed 4 times with buffer A at 4° C., an enhancing reagent (DELFIA SA) was added in an amount of 100 μl/well, and the plate was shaken for 5 minutes using a plate mixer. Subsequently, the fluorescence intensity was measured with a time-resolved fluorometer (DELFIA Wallac). The IC50 of the substance under test (the concentration for 50% inhibition of the binding between CHO cells and Eu^3+-hVCAM-1 D1D7-IgG) was determined from the binding rate obtained from the calculating expression of [(FT−FNS)−(FI−FNS)]/[(FT−FNS)]×100. Here, FT represents the fluorescence intensity of a well not containing the substance under test; FNS represents the fluorescence intensity of a well not containing the substance under test and hVCAM-1 D1D7-IgG; and FI represents the fluorescence intensity of a well containing the substance under test. The Kd value which represents the strength of binding, and Bmax (maximum binding amount) were estimated to be in the range of 0.06 to 20 nM according to the Scatchard analysis method. The evaluation results of the Ki value of the substance under test, and of the IC50 value in the presence of 3% HSA are presented in Tables 2 to 7.
The Ki value was calculated according to the above-described expression. ([L] is the ligand concentration)
[* buffer A: 25 mM HEPES (pH 7.5), 150 mM NaCl, 1 mM Ca^2+, 1 mM Mg^2+, 4 mM Mn2+;
** assay buffer: 25 mM HEPES (pH=7.5), 150 mM NaCl, 1 mM Ca^2+, 1 mM Mg^2+, 4 mM Mn^2+, 0.1% BSA, 20 μM DTPA, with/without 6% ALBUMIN, HUMAN SERUM (C/N A-1653, SIGMA)]

T1 sequence (P13612 34-1032): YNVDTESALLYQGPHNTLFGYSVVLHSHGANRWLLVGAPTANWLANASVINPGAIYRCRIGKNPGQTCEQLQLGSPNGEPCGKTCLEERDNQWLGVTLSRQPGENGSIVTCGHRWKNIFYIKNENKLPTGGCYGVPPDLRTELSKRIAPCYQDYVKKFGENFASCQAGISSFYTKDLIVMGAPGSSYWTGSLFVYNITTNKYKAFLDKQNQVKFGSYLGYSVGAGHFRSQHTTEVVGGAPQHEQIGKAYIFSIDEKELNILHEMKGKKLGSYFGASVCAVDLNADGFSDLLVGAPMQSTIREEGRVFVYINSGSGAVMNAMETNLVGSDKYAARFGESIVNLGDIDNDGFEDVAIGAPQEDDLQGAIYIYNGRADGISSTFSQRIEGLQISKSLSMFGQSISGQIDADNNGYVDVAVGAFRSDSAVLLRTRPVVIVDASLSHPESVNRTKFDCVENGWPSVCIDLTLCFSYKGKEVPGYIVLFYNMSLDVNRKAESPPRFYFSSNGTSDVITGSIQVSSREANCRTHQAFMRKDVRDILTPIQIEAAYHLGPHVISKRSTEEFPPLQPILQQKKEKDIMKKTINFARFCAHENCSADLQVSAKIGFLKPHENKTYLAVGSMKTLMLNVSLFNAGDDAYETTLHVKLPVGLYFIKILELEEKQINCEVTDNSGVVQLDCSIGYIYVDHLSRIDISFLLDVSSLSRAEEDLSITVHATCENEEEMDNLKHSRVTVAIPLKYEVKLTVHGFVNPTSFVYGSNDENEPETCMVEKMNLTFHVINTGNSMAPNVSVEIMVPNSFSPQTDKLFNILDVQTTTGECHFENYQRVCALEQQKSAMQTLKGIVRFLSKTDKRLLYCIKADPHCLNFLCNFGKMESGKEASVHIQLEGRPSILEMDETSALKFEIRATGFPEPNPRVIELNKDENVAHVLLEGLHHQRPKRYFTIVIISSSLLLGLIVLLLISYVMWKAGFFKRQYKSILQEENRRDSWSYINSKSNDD
T1 sequence (P05556 21-798): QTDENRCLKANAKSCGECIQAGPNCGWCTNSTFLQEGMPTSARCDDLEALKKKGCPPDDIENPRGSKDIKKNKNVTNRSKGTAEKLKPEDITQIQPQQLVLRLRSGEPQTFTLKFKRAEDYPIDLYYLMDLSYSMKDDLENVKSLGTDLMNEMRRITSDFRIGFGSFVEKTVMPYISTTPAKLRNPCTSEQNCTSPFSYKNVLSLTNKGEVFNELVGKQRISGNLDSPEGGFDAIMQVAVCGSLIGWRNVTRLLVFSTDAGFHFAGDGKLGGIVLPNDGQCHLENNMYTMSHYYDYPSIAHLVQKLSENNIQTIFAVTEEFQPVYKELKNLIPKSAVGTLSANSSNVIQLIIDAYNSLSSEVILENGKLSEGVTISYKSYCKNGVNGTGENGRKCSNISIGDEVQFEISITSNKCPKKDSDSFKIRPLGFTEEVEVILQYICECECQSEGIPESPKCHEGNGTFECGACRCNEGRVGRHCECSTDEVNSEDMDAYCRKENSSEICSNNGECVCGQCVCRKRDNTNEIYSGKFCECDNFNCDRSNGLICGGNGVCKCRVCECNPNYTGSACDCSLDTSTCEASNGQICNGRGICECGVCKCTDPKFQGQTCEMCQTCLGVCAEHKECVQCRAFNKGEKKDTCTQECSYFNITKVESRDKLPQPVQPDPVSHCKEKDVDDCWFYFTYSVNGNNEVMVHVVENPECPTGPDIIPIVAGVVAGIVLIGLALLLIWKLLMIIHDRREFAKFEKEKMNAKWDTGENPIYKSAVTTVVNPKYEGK

One may read the Ki as the dissociation constant of the complex between target and ligand, obtained from inhibition or displacement. A higher Ki goes with weaker binding. One may read the IC50 as the concentration that gives 50% inhibition. As for `CN1CCN([C@H]2C[C@@H](CO[C@H]3CC[C@H](C(=O)O)CC3)N(C(=O)Cc3cc(Cl)c(NC(=O)c4coc5ccccc45)cc3Cl)C2)CC1=O` [Example 155, Trans-4-[1-[[4-[(benzo[b]furan-3-ylcarbonyl)amino]-2,5-dichlorophenyl]acetyl]-(4S)-(4-methyl-3-oxopiperazin-1-yl)-(2S)-pyrrolidinylmethoxy]cyclohexanecarboxylic acid], the Ki amounted to 2.1 nM and the IC50 worked out at 10 nM.

For `COC[C@H]1CC[C@H](COC)N1[C@H]1C[C@@H](CO[C@H]2CC[C@H](C(=O)O)CC2)N(C(=O)Cc2cc(Cl)c(NC(=O)c3csc4ccccc34)cc2F)C1` [Example 49], the Ki worked out at 4 nM and the IC50 amounted to 62 nM.

Consider `O=C(Nc1cc(F)c(CC(=O)N2C[C@@H](N3CCC3)C[C@H]2CO[C@H]2CC[C@H](C(=O)O)CC2)cc1Cl)c1csc2ccccc12` [Example 9, Trans-4-[(4S)-(azetidin-1-yl)-1-[[4-[(benzo[b]thiophen-3-ylcarbonyl)amino]-5-chloro-2-fluorophenyl]acetyl]-(2S)-pyrrolidinylmethoxy]cyclohexanecarboxylic acid], for which the Ki turned out to be 1.4 nM and the IC50 is 8.2 nM.

`CN(C)C1CN([C@H]2C[C@@H](CO[C@H]3CC[C@H](C(=O)O)CC3)N(C(=O)Cc3cc(Cl)c(NC(=O)c4csc5ccccc45)cc3Cl)C2)C1` [Example 23, Trans-4-[1-[[4-[(benzo[b]thiophen-3-ylcarbonyl)amino]-2,5-dichlorophenyl]acetyl]-(4S)-[3-(N,N-dimethylamino)azetidin-1-yl]-(2S)-pyrrolidinylmethoxy]cyclohexanecarboxylic acid]: the Ki worked out at 2.5 nM and the IC50 came out at 14 nM.

As to `O=C(Nc1cc(F)c(CC(=O)N2C[C@@H](N3CCN(CC(F)(F)F)CC3)C[C@H]2CO[C@H]2CC[C@H](C(=O)O)CC2)cc1Cl)c1coc2ccccc12` [Example 126, Trans-4-[1-[[4-[(benzo[b]furan-3-ylcarbonyl)amino]-5-chloro-2-fluorophenyl]acetyl]-(4S)-[4-(2,2,2-trifluoroethyl)piperazin-1-yl]-(2S)-pyrrolidinylmethoxy]cyclohexanecarboxylic acid], the affinity corresponds to a Ki of 2.4 nM and the IC50 turned out to be 13 nM.

Regarding `O=C(Nc1cc(Cl)c(CC(=O)N2C[C@@H](N3CCN(CC(F)(F)F)CC3)C[C@H]2CO[C@H]2CC[C@H](C(=O)O)CC2)cc1Cl)c1c[nH]c2ccccc12` [Example 129, Trans-4-[1-[[2,5-dichloro-4-[(1H-indol-3-ylcarbonyl)amino]phenyl]acetyl]-(4S)-[4-(2,2,2-trifluoroethyl)piperazin-1-yl]-(2S)-pyrrolidinylmethoxy]cyclohexanecarboxylic acid], the Ki came to 0.93 nM and the IC50 turned out to be 1.9 nM.

Consider `Cn1cc(C(=O)Nc2cc(F)c(CC(=O)N3C[C@@H](N4CCN(CC(F)F)CC4)C[C@H]3CO[C@H]3CC[C@H](C(=O)O)CC3)cc2Cl)c2ccccc21` [Example 121, Trans-4-[1-[[5-chloro-2-fluoro-4-[(1-methyl-1H-indol-3-ylcarbonyl)amino]phenyl]acetyl]-(4S)-[4-(2,2-difluoroethyl)piperazin-1-yl]-(2S)-pyrrolidinylmethoxy]cyclohexanecarboxylic acid], for which affinity was put at a Ki of 3.2 nM and the IC50 was determined as 11 nM.

For the compound `O=C(Nc1cc(F)c(CC(=O)N2C[C@@H](N3CCN(CC(F)(F)F)CC3)C[C@H]2CO[C@H]2CC[C@H](C(=O)O)CC2)cc1Cl)c1c[nH]c2ccccc12` [Example 131, Trans-4-[1-[[5-chloro-2-fluoro-4-[(1H-indol-3-ylcarbonyl)amino]phenyl]acetyl]-(4S)-[4-(2,2,2-trifluoroethyl)piperazin-1-yl]-(2S)-pyrrolidinylmethoxy]cyclohexanecarboxylic acid], the Ki was determined as 1.1 nM and the 50% inhibitory concentration (IC50) is 1.8 nM.

For `O=C(Nc1cc(F)c(CC(=O)N2C[C@@H](N3CCC4(CC4)C3)C[C@H]2CO[C@H]2CC[C@H](C(=O)O)CC2)cc1Cl)c1csc2ccccc12` [Example 39, Trans-4-[(4S)-(5-azaspiro[2.4]heptan-5-yl)-1-[[4-[(benzo[b]thiophen-3-ylcarbonyl)amino]-5-chloro-2-fluorophenyl]acetyl]-(2S)-pyrrolidinylmethoxy]cyclohexanecarboxylic acid], the Ki amounted to 0.64 nM and the IC50 was 4.9 nM.

For `CC1(C)O[C@H]2CN([C@H]3C[C@@H](CO[C@H]4CC[C@H](C(=O)O)CC4)N(C(=O)Cc4cc(Cl)c(NC(=O)c5csc6ccccc56)cc4Cl)C3)C[C@H]2O1` [Example 75, Trans-4-[1-[[4-[(benzo[b]thiophen-3-ylcarbonyl)amino]-2,5-dichlorophenyl]acetyl]-(4S)-[(3a,6a-cis)-2,2-dimethyltetrahydro[1,3]dioxo[4,5-c]pyrrol-5-yl]-(2S)-pyrrolidinylmethoxy]cyclohexanecarboxylic acid], the affinity corresponds to a Ki of 0.52 nM and the IC50 worked out at 12 nM.

Consider `CCC1(OC)CN([C@H]2C[C@@H](CO[C@H]3CC[C@H](C(=O)O)CC3)N(C(=O)Cc3cc(Cl)c(NC(=O)c4csc5ccccc45)cc3F)C2)C1` [Example 17, Trans-4-[1-[[4-[(benzo[b]thiophen-3-ylcarbonyl)amino]-5-chloro-2-fluorophenyl]acetyl]-(4S)-(3-ethyl-3-methoxyazetidin-1-yl)-(2S)-pyrrolidinylmethoxy]cyclohexanecarboxylic acid], for which the Ki was 1.8 nM and the IC50 stood at 48 nM.

As to `C[C@@H]1CN([C@H]2C[C@@H](CO[C@H]3CC[C@H](C(=O)O)CC3)N(C(=O)Cc3cc(Cl)c(NC(=O)c4cn(C)c5ccccc45)cc3F)C2)C[C@H](C)O1` [Example 81, Trans-4-[1-[[5-chloro-2-fluoro-4-[(1-methyl-1H-indol-3-ylcarbonyl)amino]phenyl]acetyl]-(4S)-(cis-2,6-dimethylmorpholin-4-yl)-(2S)-pyrrolidinylmethoxy]cyclohexanecarboxylic acid], the Ki was 3 nM and the IC50 came out at 12 nM.

For the compound `COC1CN([C@H]2C[C@@H](CO[C@H]3CC[C@H](C(=O)O)CC3)N(C(=O)Cc3cc(Cl)c(NC(=O)c4coc5ccccc45)cc3Cl)C2)C1` [Example 6, Trans-4-[1-[[4-[(benzo[b]furan-3-ylcarbonyl)amino]-2,5-dichlorophenyl]acetyl]-(4S)-(3-methoxyazetidin-1-yl)-(2S)-pyrrolidinylmethoxy]cyclohexanecarboxylic acid], the affinity, expressed as Ki, was 5.9 nM and the IC50 was found to be 76 nM.

Take `C[C@@H]1CN([C@H]2C[C@@H](CO[C@H]3CC[C@H](C(=O)O)CC3)N(C(=O)Cc3cc(Cl)c(NC(=O)c4c[nH]c5ccccc45)cc3F)C2)C[C@H](C)O1` [Example 90, Trans-4-[1-[[5-chloro-2-fluoro-4-[(1H-indol-3-ylcarbonyl)amino]phenyl]acetyl]-(4S)-(cis-2,6-dimethylmorpholin-4-yl)-(2S)-pyrrolidinylmethoxy]cyclohexanecarboxylic acid]: the Ki turned out to be 1.2 nM and the IC50 was 2.4 nM.
